Measured values taken from patent publication US11286268B1, “EIF4E-inhibiting compounds and methods” (EFFECTOR THERAPEUTICS, INC., priority 2019, dated 2022).
Read-outs that look alike come from different tables or passages of the source.

Target: recombinant eIF4E (Homo sapiens (Human), UniProt P06730)
Test: Fluorescence polarization competition assay for eIF4E binding potency
Summary of the method: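 Protein and fluorescent cap-analog probe (EDA-m7GDP-ATTO-550) were mixed first for 5 min, after which serially diluted compound was added to final 75 nM eIF4E, 20 nM probe, 1% DMSO. Reactions equilibrated 30 min at room temperature before polarization was measured.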

[1] = fluorescence polarization competition, 75 nM recombinant eIF4E, 20 nM EDA-m7GDP-ATTO-550, IC50 class, read-out: elF4E FP
[2] = inhibition of eIF4E/EDA-m7GDP-ATTO-550 binding by 50%, Table 4B calculated values, read-out: IC50

Sequence of recombinant eIF4E (P06730 whole entry): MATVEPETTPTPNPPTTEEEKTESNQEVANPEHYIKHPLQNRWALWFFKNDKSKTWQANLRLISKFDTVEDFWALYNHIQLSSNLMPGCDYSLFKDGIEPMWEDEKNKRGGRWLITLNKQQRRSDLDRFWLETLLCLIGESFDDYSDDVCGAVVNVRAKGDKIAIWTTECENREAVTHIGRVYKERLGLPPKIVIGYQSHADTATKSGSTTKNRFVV

IC50 [1] [nM]	IC50 [2] [nM]	SMILES
> 1000	1040	Cc1cc(-c2cc(Cl)ccc2OCCn2c(C)nc3cc(C(F)(F)F)c(-c4cc(F)cnc4C)c(C#N)c3c2=O)c2scc(C(=O)OCCN3CCCC3)c2n1 [compound 1081]
50 to 1000	903	Cc1cc(-c2cc(Cl)ccc2OCCn2c(C)nc3cc(C(F)(F)F)c(N4CCN(C)CC4)c(C#N)c3c2=O)c2scc(C(=O)OC(C)OC(=O)OC3CCCCC3)c2n1 (stereo not drawn) [compound 1082]
< 50	44	CCc1cc(-c2cc(Cl)ccc2OCCn2c(C)nc3cc(C(F)(F)F)c(N4CCN(C)CC4)cc3c2=O)c2scc(C(=O)O)c2n1 [compound 1083]
< 50	15	CCc1cc(-c2cc(Cl)ccc2OCCn2c(C)nc3cc(C(F)(F)F)c(N4CCN(C)CC4)nc3c2=O)c2scc(C(=O)O)c2n1 [compound 1084]
50 to 1000	54.3	CCc1cc(-c2cc(Cl)ccc2OCCn2c(C)nc3cc(C(F)(F)F)c(N4CCN(C)CC4)c(C#N)c3c2=O)c2scc(C(=O)O)c2n1 [compound 1085]
< 50	38.4	CCc1cc(-c2cc(Cl)ccc2OCCn2c(C)nc3cnc(N4CCN(C)CC4)c(C#N)c3c2=O)c2scc(C(=O)O)c2n1 [compound 1086]
< 50	39.2	CCc1cc(-c2cc(Cl)ccc2OCCn2c(C)nc3cc(C(F)(F)F)c(N4CCN(C)CC4)c(C#N)c3c2=O)c2sc(C)c(C(=O)O)c2n1 [compound 1087]
50 to 1000	53.3	CCc1cc(-c2cc(Cl)ccc2OCCn2c(C)nc3cc(C(F)(F)F)c(C4=CCN(C)CC4)c(C#N)c3c2=O)c2scc(C(=O)O)c2n1 [compound 1088]
50 to 1000	618	Cc1cc(-c2cc(Cl)ccc2OCCn2c(C)nc3cnc(N4CCN(C)CC4)c(C#N)c3c2=O)c2sccc2n1 [compound 1089]
50 to 1000	91.4	Cc1cc(-c2cc(Cl)ccc2OCCn2c(C)nc3cnc(N4CC(N(C)C)C4)c(C#N)c3c2=O)c2sc(C)c(C(=O)O)c2n1 [compound 1091]
< 50	33.5	Cc1cc(-c2cc(Cl)ccc2OCCn2c(C)nc3cc(C(F)(F)F)c(N4CCN(C)CC4)nc3c2=O)c2sc(C)c(C(=O)O)c2n1 [compound 1096]
< 50	38.8	Cc1cc(-c2cc(Cl)ccc2OCCn2c(C)nc3cnc(N4CCC(F)(F)CC4)c(C#N)c3c2=O)c2scc(C(=O)O)c2n1 [compound 1097]
< 50	15.6	Cc1cc(-c2cc(Cl)ccc2OCCn2c(C)nc3cc(-c4cccnc4)c(Cl)c(C#N)c3c2=O)c2scc(C(=O)O)c2n1 [compound 1098]
< 50	–	Cc1nc2cnc(N(C)[C@H]3CC[C@H](N4CC(F)(F)C4)CC3)c(C#N)c2c(=O)n1CC#Cc1ccc(Cl)cc1-c1ccnc2c(C(=O)O)csc12 [compound 1099]
< 50	33.5	Cc1nc2cnc(N(C)[C@H]3CC[C@@H](N4CC(F)(F)C4)CC3)c(C#N)c2c(=O)n1CC#Cc1ccc(Cl)cc1-c1ccnc2c(C(=O)O)csc12 [compound 1100]
< 50	7.2	Cc1nc2cnc(N3CCN(C4CC4)CC3(C)C)c(C#N)c2c(=O)n1CCOc1ccc(Cl)cc1-c1ccnc2c(C(=O)O)csc12 [compound 1101]
< 50	19.2	Cc1nc2cnc(N3CCN(C4CC4)CC3(C)C)c(C#N)c2c(=O)n1CC#Cc1ccc(Cl)cc1-c1ccnc2c(C(=O)O)csc12 [compound 1102]
< 50	14.8	Cc1nc2cnc(N(C)C3CCN(CC(F)(F)C(F)F)CC3)c(C#N)c2c(=O)n1CC#Cc1ccc(Cl)cc1-c1ccnc2c(C(=O)O)csc12 [compound 1103]
50 to 1000	631	COC(=O)c1csc2c(-c3cc(Cl)ccc3C#CCn3c(C)nc4cnc(N5CCN(CCOC(F)(F)F)CC5)c(C#N)c4c3=O)ccnc12 [compound 1104]
< 50	21.7	Cc1nc2cnc(N(C)C3CCN(CC(C)(F)F)CC3)c(C#N)c2c(=O)n1CC#Cc1ccc(Cl)cc1-c1ccnc2c(C(=O)NS(=O)(=O)CC(F)F)csc12 [compound 1105]
< 50	17.4	Cc1nc2cnc(N(C)C34CCC(N(C)CCF)(CC3)C4)c(C#N)c2c(=O)n1CC#Cc1ccc(Cl)cc1-c1ccnc2c(C(=O)O)csc12 [compound 1106]
< 50	10.5	Cc1nc2cnc(N(C)C3CCN(CC(F)(F)C(C)(F)F)CC3)c(C#N)c2c(=O)n1CC#Cc1ccc(Cl)cc1-c1ccnc2c(C(=O)O)csc12 [compound 1107]
< 50	29.1	Cc1nc2cnc(N(C)C3CCN(C4CC(F)(F)C4)CC3)c(C#N)c2c(=O)n1CC#Cc1ccc(Cl)cc1-c1ccnc2c(C(=O)NS(C)(=O)=O)csc12 [compound 1108]

IC50 [1] [nM]	IC50 [2] [nM]	SMILES
< 50	13.4	Cc1nc2cnc(N(C)C3CCN(C4CC(F)(F)C4)CC3)c(C#N)c2c(=O)n1CC#Cc1ccc(Cl)cc1-c1ccnc2c(C(=O)NS(=O)(=O)c3ccccn3)csc12 [compound 1109]
< 50	7.2	Cc1nc2cnc(N(C)C3CCN(C4CC(F)(F)C4)CC3)c(C#N)c2c(=O)n1CC#Cc1ccc(Cl)cc1-c1ccnc2c(C(=O)NS(=O)(=O)c3cccnc3)csc12 [compound 1110]
< 50	5.71	Cc1nc2cnc(N(C)C3CCN(C4CC(F)(F)C4)CC3)c(C#N)c2c(=O)n1CC#Cc1ccc(Cl)cc1-c1ccnc2c(C(=O)NS(=O)(=O)c3ccncc3)csc12 [compound 1111]
< 50	19.9	Cc1nc2cnc(N(C)C3CCN(CC(F)F)CC3)c(C#N)c2c(=O)n1CC#Cc1ccc(Cl)cc1-c1ccnc2c(C(=O)O)csc12 [compound 1112]
50 to 1000	140	COC(=O)c1csc2c(-c3cc(Cl)ccc3C#CCn3c(C)nc4cnc(N(C)C5CCN(CC(F)F)CC5)c(C#N)c4c3=O)ccnc12 [compound 1113]
< 50	6.77	Cc1nc2c(C3CCN(CC(F)(F)F)CC3)ncc(C#N)c2c(=O)n1CCOc1ccc(Cl)cc1-c1ccnc2c(C(=O)O)csc12 [compound 1115]
< 50	17.1	Cc1nc2cnc(C3CCN(CC(F)(F)F)CC3)c(C#N)c2c(=O)n1CC#Cc1ccc(Cl)cc1-c1ccnc2c(C(=O)O)csc12 [compound 1116]
< 50	13.4	Cc1nc2cnc(C3CCN(CC(F)(F)F)CC3)c(C#N)c2c(=O)n1CCOc1ccc(Cl)cc1-c1ccnc2c(C(=O)O)csc12 [compound 1117]
< 50	14	Cc1nc2cnc(N(C)C3CCN(C4(C)COC4)CC3)c(C#N)c2c(=O)n1CC#Cc1ccc(Cl)cc1-c1ccnc2c(C(=O)O)csc12 [compound 1118]
< 50	14.6	Cc1nc2cnc(N(C)C3CCN(CC(F)(F)C(F)(F)F)CC3)c(C#N)c2c(=O)n1CC#Cc1ccc(Cl)cc1-c1ccnc2c(C(=O)O)csc12 [compound 1119]
< 50	9.51	Cc1nc2cnc(N(C)C3CCCCC3)c(C#N)c2c(=O)n1CC#Cc1ccc(Cl)cc1-c1ccnc2c(C(=O)O)csc12 [compound 1120]
< 50	9.26	Cc1nc2cnc(/C=C/CN3CCC(F)(F)CC3)c(C#N)c2c(=O)n1CCOc1ccc(Cl)cc1-c1ccnc2c(C(=O)O)csc12 [compound 1121]
< 50	14.6	Cc1nc2cnc(/C=C/CN3CC(F)C3)c(C#N)c2c(=O)n1CCOc1ccc(Cl)cc1-c1ccnc2c(C(=O)O)csc12 [compound 1122]
< 50	21.5	Cc1nc2cnc(/C=C/C3(N(C)C)CC3)c(C#N)c2c(=O)n1CCOc1ccc(Cl)cc1-c1ccnc2c(C(=O)O)csc12 [compound 1123]
< 50	14.5	Cc1nc2cnc(N(C)C3CCN(CC(F)(F)C4CC4)CC3)c(C#N)c2c(=O)n1CC#Cc1ccc(Cl)cc1-c1ccnc2c(C(=O)O)csc12 [compound 1125]
< 50	26.6	Cc1nc2cnc(N(C)C3CCN(CC(F)(F)C4CC4)CC3)c(C#N)c2c(=O)n1CCOc1ccc(Cl)cc1-c1ccnc2c(C(=O)O)csc12 [compound 1126]
< 50	12.9	Cc1nc2cnc(N(C)C3CCN(CC(=O)C(C)C)CC3)c(C#N)c2c(=O)n1CCOc1ccc(Cl)cc1-c1ccnc2c(C(=O)O)csc12 [compound 1127]
< 50	23.9	Cc1nc2cnc(N(C)C3CCN(CC(=O)C4CC4)CC3)c(C#N)c2c(=O)n1CCOc1ccc(Cl)cc1-c1ccnc2c(C(=O)O)csc12 [compound 1128]
< 50	14.7	Cc1nc2cnc(N(C)C3CCN(C4(C(F)(F)CO)CC4)CC3)c(C#N)c2c(=O)n1CC#Cc1ccc(Cl)cc1-c1ccnc2c(C(=O)O)csc12 [compound 1131]
< 50	13.3	Cc1nc2cnc(N(C)C3CCN(CC(F)(F)CO)CC3)c(C#N)c2c(=O)n1CC#Cc1ccc(Cl)cc1-c1ccnc2c(C(=O)O)csc12 [compound 1132]
< 50	17	COCC(F)(F)CN1CCC(N(C)c2ncc3nc(C)n(CC#Cc4ccc(Cl)cc4-c4ccnc5c(C(=O)O)csc45)c(=O)c3c2C#N)CC1 [compound 1133]
< 50	15.3	Cc1nc2cnc(N(C)C3CCN(CC(F)(F)CF)CC3)c(C#N)c2c(=O)n1CC#Cc1ccc(Cl)cc1-c1ccnc2c(C(=O)O)csc12 [compound 1134]

SMILES	IC50 [1] [nM]	IC50 [2] [nM]
Cc1cc(-c2cc(Cl)ccc2OCCn2c(C)nc3cnc(N4[C@@H]5CC[C@H]4CN(C)C5)c(C#N)c3c2=O)c2sc(C)c(C(=O)O)c2n1 [compound 1092]	< 50	42.7
Cc1sc2c(-c3cc(Cl)ccc3OCCn3c(C)nc4cc(C(F)(F)F)c(N5CCN(C)CC5)c(C#N)c4c3=O)ccnc2c1C(=O)O [compound 1093]	50 to 1000	58.6
